{"source": "patent US20060148730A1", "about": "“Method of treating tuberculosis” (priority 2003, published 2006)"}
{"tested_on": "M. tuberculosis H37Rv", "assay": "MIC vs. M. tuberculosis H37Rv, microplate Alamar Blue assay (MABA)", "assay_type": "cell-based", "conditions": "not given", "units": {"MIC against M. tuberculosis": "µM"}}
{"molecule": "cethromycin [ABT773, reference compound]", "MIC against M. tuberculosis": 3}
{"tested_on": "M. tuberculosis H37Rv", "assay": "MIC vs. M. tuberculosis H37Rv, microplate Alamar Blue assay (MABA)", "assay_type": "cell-based", "conditions": "Table 1a, 11,12-carbamate derivatives; anti-TB activity; read-out: MIC", "units": {"MIC": "µM"}}
{"molecule": "cethromycin [ABT773, reference compound]", "MIC": 3}
{"molecule": "CC[C@H]1OC(=O)[C@H](C)C(=O)[C@H](C)[C@@H](O[C@@H]2O[C@H](C)C[C@H](N(C)C)[C@H]2O)[C@](C)(OC)C[C@@H](C)C(=O)[C@H](C)[C@H]2N(NCCc3ccccc3)C(=O)O[C@]12C", "note": "[RU70645]", "MIC": 14}
{"tested_on": "M. tuberculosis H37Rv", "assay": "MIC vs. M. tuberculosis H37Rv, microplate Alamar Blue assay (MABA)", "assay_type": "cell-based", "conditions": "Table 3; parallel-synthesis carbazate library products, SPE purified; read-out: MIC", "units": {"MIC": "µM"}}
{"molecule": "CC[C@H]1OC(=O)[C@H](C)[C@@H](O[C@H]2CC(C)(OC)[C@@H](O)[C@H](C)O2)[C@H](C)[C@@H](O[C@@H]2O[C@H](C)C[C@H](N(C)C)[C@H]2O)[C@](C)(OC)C[C@@H](C)C(=O)[C@H](C)[C@H]2N(NCc3c(C)noc3C)C(=O)O[C@]12C", "note": "(some centres unmarked) [C6′]", "MIC": ">17"}
{"molecule": "CC[C@H]1OC(=O)[C@H](C)[C@@H](O[C@H]2CC(C)(OC)[C@@H](O)[C@H](C)O2)[C@H](C)[C@@H](O[C@@H]2O[C@H](C)C[C@H](N(C)C)[C@H]2O)[C@](C)(OC)C[C@@H](C)C(=O)[C@H](C)[C@H]2N(NCc3cc(C(=O)OC)c(C)o3)C(=O)O[C@]12C", "note": "(some centres unmarked) [A12′]", "MIC": ">12"}
{"molecule": "CC[C@H]1OC(=O)[C@H](C)[C@@H](O[C@H]2CC(C)(OC)[C@@H](O)[C@H](C)O2)[C@H](C)[C@@H](O[C@@H]2O[C@H](C)C[C@H](N(C)C)[C@H]2O)[C@](C)(OC)C[C@@H](C)C(=O)[C@H](C)[C@H]2N(NCc3cc(Cl)cc(Br)c3O)C(=O)O[C@]12C", "note": "(some centres unmarked) [G8′]", "MIC": 14}
{"molecule": "CC[C@H]1OC(=O)[C@H](C)[C@@H](O[C@H]2CC(C)(OC)[C@@H](O)[C@H](C)O2)[C@H](C)[C@@H](O[C@@H]2O[C@H](C)C[C@H](N(C)C)[C@H]2O)[C@](C)(OC)C[C@@H](C)C(=O)[C@H](C)[C@H]2N(NCc3c(Sc4ccc(Cl)cc4)nc4sccn34)C(=O)O[C@]12C", "note": "(some centres unmarked) [H11′]", "MIC": 35.4}
{"molecule": "CC[C@H]1OC(=O)[C@H](C)[C@@H](O[C@H]2CC(C)(OC)[C@@H](O)[C@H](C)O2)[C@H](C)[C@@H](O[C@@H]2O[C@H](C)C[C@H](N(C)C)[C@H]2O)[C@](C)(OC)C[C@@H](C)C(=O)[C@H](C)[C@H]2N(NCc3cnccc3NC(=O)C(C)(C)C)C(=O)O[C@]12C", "note": "(some centres unmarked) [E2′]", "MIC": ">27"}
{"molecule": "CC[C@H]1OC(=O)[C@H](C)[C@@H](O[C@H]2CC(C)(OC)[C@@H](O)[C@H](C)O2)[C@H](C)[C@@H](O[C@@H]2O[C@H](C)C[C@H](N(C)C)[C@H]2O)[C@](C)(OC)C[C@@H](C)C(=O)[C@H](C)[C@H]2N(NCc3cncn3C)C(=O)O[C@]12C", "note": "(some centres unmarked) [B5′]", "MIC": ">27"}
{"tested_on": "M. tuberculosis H37Rv", "assay": "MIC vs. M. tuberculosis H37Rv, microplate Alamar Blue assay (MABA)", "assay_type": "cell-based", "conditions": "Table 4; read-out: MIC", "units": {"MIC": "µM"}}
{"molecule": "CCC1OC(=O)C(C)C(OC2CC(C)(OC)C(O)C(C)O2)C(C)C(OC2OC(C)CC(N(C)C)C2O)C(C)(OC)CC(C)C(=NOCCC2OCCO2)C(C)C(O)C1(C)O", "note": "(centres unmarked) [Compound 1GY11]", "MIC": 29.5}
{"tested_on": "M. tuberculosis H37Rv", "assay": "MIC vs. M. tuberculosis H37Rv, microplate Alamar Blue assay (MABA)", "assay_type": "cell-based", "conditions": "Table 5; read-out: MIC", "units": {"MIC": "µM"}}
{"molecule": "CCC1OC(=O)C(C)C(OC2CC(C)(OC)C(O)C(C)O2)C(C)C(OC2OC(C)CC(N(C)C)C2OC(=S)Nc2ccccc2)C(C)(OC)CC(C)C(=O)C(C)C(O)C1(C)O", "note": "(centres unmarked) [Compound 3ZZ61b]", "MIC": 7.3}
{"molecule": "CCC1OC(=O)C(C)C(OC2CC(C)(OC)C(O)C(C)O2)C(C)C(OC2OC(C)CC(N(C)C)C2O)C(C)(O)CC(C)C(=NN=Cc2cccc(OC(F)(F)F)c2)C(C)C(O)C1(C)O", "note": "(centres unmarked) [Compound 1OK109]", "MIC": 11}
{"molecule": "CCC1OC(=O)C(C)C(OC2CC(C)(OC)C(O)C(C)O2)C(C)C(OC2OC(C)CC(N(C)C)C2O)C(C)(O)CC(C)C(=NN=Cc2ccc(SC)cc2)C(C)C(O)C1(C)O", "note": "(centres unmarked) [Compound 1OK121]", "MIC": 12}
{"molecule": "C#CCON=C1C(C)CC(C)(OC)C(OC2OC(C)CC(N(C)C)C2O)C(C)C(OC2CC(C)(OC)C(O)C(C)O2)C(C)C(=O)OC(CC)C(C)(O)C(O)C1C", "note": "(centres unmarked) [Compound 1GY17]", "MIC": 13}
{"molecule": "CCC1OC(=O)C(C)C(OC2CC(C)(OC)C(O)C(C)O2)C(C)C(OC2OC(C)CC(N(C)C)C2OC(=S)Nc2ccccc2)C(C)(O)CC(C)C(=NOCOCCOC)C(C)C(O)C1(C)O", "note": "(centres unmarked) [Compound 3ZZ59b]", "MIC": 5.6}
{"molecule": "CCC1OC(=O)C(C)C(OC2CC(C)(OC)C(O)C(C)O2)C(C)C(OC2OC(C)CC(N(C)C)C2O)C(C)(O)CC(C)C(=NN=Cc2cccc(C(F)(F)F)c2)C(C)C(O)C1(C)O", "note": "(centres unmarked) [Compound 1OK119]", "MIC": 16}
{"molecule": "CCC1OC(=O)C(C)C(O)C(C)C(OC2OC(C)CC(N(C)C)C2O)C(C)(OC)CC(C)C(=NOCCC2CCCCC2)C(C)C(O)C1(C)O", "note": "(centres unmarked) [Compound 2GY5]", "MIC": 3.1}
